# In US20220218826A1, “COMPOSITION FOR TOPICAL USE FOR PHOTODYNAMIC THERAPY” (UNIVERSIDAD DE LA FRONTERA, priority 2019, published 2022):
# Columns and labels:
# [1] = system: PDT-resistant HSC-1 cells; assay: Detection of protoporphyrin IX (PpIX) by flow cytometry; assay type: cell-based; settings: 4 hours in the dark
# Protocol: For this, PDT-resistant cells, obtained as stated in example 1, were incubated with 150 mg/g MAL, plus EGCG (0.1 mg/g, 0.2 mg/g, 0.4 mg/g) or EDTA (1 mg/g, 2 mg/g, 3 mg/g) for 4 hours in the dark. Subsequently, the PpIX content in resistant cells was detected by flow cytometry, since PpIX is a fluorescent compound.
# [2] = system: MAL-PDT-resistant HSC-1 cells; assay: MTT cell viability after MAL-PDT with EGCG and/or EDTA as adjuvants
# Protocol: The in vitro effect of EGCG and EDTA separately as adjuvants of MAL-PDT was assessed HSC-1 cells derived from squamous skin carcinoma were used. Previously, these cells received PDT cycles, in order to select those that are resistant to PDT. Therefore, the model used corresponds to MAL-PDT-resistant HSC-1 cells.
# The in vitro photodynamic conventional treatment consisted of incubating these cells with MAL 150 mg/g (photosensitiser) for 4 hours in the dark and after radiating them with 630 nm red light, with fluence of 4 J/cm^2. Cell viability was assessed 24 hours later by the MTT assay.
# Subsequently, this protocol was carried out in the same way in these cells, only with the following modification: when adding MAL, different concentrations of EDTA were added (0.5 mg/g, 1 mg/g, 1.5 mg/g, and 2 mg/g) or EGCG (0.2 mg/g, 0.4 mg/g, 0.6 mg/g, 0.8 mg/g). The MAL concentration of 150 mg/g was kept in all tests and experiments with irradiation (light) fluency same to the control at 4 J/cm^2, or without radiation, were carried out.
# [3] = system: PDT-resistant HSC-1 cells; assay: Detection of reactive oxygen species (ROS) with Muse Oxidative Stress Kit; assay type: cell-based; settings: all assessed EGCG concentrations (0.1, 0.2, 0.4 mg/g) + MAL 150 mg/g, 4 hours, red light irradiation
# Protocol: Given that in PDT, it is finally the reactive oxygen substances that cause cell damage and death, the production of these compounds was directly assessed. The same model as in example 3 was used, at the same EGCG concentrations stated in FIG. 3A, in order to assess the production of ROS generated in MAL-PDT. Following the previous methodology, after incubating the cells for 4 hours, these received red light irradiation. For ROS detection, these were incubated with a probe (Muse™ Oxidative Stress Kit|MCH100111—Merck Millipore) for 30 minutes and was assessed in a cell analyzer.
smiles,measurement,setting,value
"O=C(O)CN(CCN(CC(=O)O)CC(=O)O)CC(=O)O [EDTA, ethylenediaminetetraacetic acid]",population that contained PpIX,"[1]; MAL 150 mg/g plus EDTA (1, 2, 3 mg/g)",≤ 13%
same,effect of EDTA in MAL-PDT on viability,"[2]; EDTA, only at 2 mg/g, + MAL 150 mg/g, light 4 J/cm^2",significant
"O=C(O[C@@H]1Cc2c(O)cc(O)cc2O[C@@H]1c1cc(O)c(O)c(O)c1)c1cc(O)c(O)c(O)c1 [EGCG, epigallocatechin galate]",ROS concentration relative to the control,[3],doubled or even tripled
same,population that contained PpIX,"[1]; MAL 150 mg/g plus EGCG (0.1, 0.2, 0.4 mg/g)",≤ 18%
same,survival rate,"[2]; EGCG from 0.4 mg/g + MAL 150 mg/g, light 4 J/cm^2",0
"COC(=O)CCC(=O)CN [MAL, methyl aminolevulinate]",population that contained PpIX,[1]; MAL 150 mg/g alone,5%
same,HSC-1 resistant cells survived PDT,"[2]; control MAL-PDT: MAL 150 mg/g, 4 hours in the dark, 630 nm red light, 4 J/cm^2, MTT 24 hours later",~50%
